Assay results taken from patent publication US20230220387A1, “D-SERINE TRANSPORT MODIFIER AND SCREENING METHOD THEREOF, AND SCREENING METHOD OF D-SERINE TRANSPORTER PROTEIN” (Kagami Inc., priority 2019, published 2023).
pEC50: −log10 of the molar value. Entries after “also recorded” stand apart in the source; their conditions may differ.

Columns and labels:
Format in all cases: cell-based
Flp-In TREx293 cells = experiment: Cell proliferation by XTT assay in Flp-In TREx293 cells treated with L- or D-serine
Procedure: (§1) 2-4. Cell survival measurement A D-serine toxicity test was carried out using HEK293 in a transient expression system. The cells were seeded in a 96-well plate at 10,000 cells/well, and transfected with […] DNA (pCMV14 as Mock, pCMV14-hSLC5A8-3×FLAG as SMCT1 and pCMV14-hSLC5A12-3×FLAG as SMCT2). At 24 hours after transfection they were treated with D-serine and further incubated for 2 days. The proliferated cell count was determined by XTT measurement. The XTT solution comprised 1 mg/ml of XTT (2,3-Bis-(2-Methoxy-4-nitro-5-sulfophenyl)-2H-tetrazolium-5-carboxanilide, disodium salt: Biotium, CA, USA) mixed with 7.5 μg/ml of Phenazine methosulfate (Nacalai Tesque, Inc.), and was added to the cultured cells. The incubation reaction was carried out for 4 hours at 37° C., 5% CO2. The absorbance at 450 nm was then measured with a microplate reader.
(§2) A toxicity test for stable cells was carried out using an FlpIn293TR-stable cell line. The cells were seeded in a poly-D-lysine-coated 96-well plate at 6.5×10^3 cells/well (Mock) and 8×10^3 cells/well (hSLC5A8 and hSLC5A12 cells), while in antibiotic-free DMEM+dialyzed FBS medium. After 24 hours, they were treated with L- or D-serine at different concentrations and 1 mg/L of doxycycline hyclate was added to induce recombination gene expression. For the ASCT2 knockdown experiment, the seeded cells were transfected after 12 hours with ASCT2 siRNA at 2 pmol/well, using Lipofectamine 3000. The effect of ibuprofen was analyzed by simultaneous addition with D-serine treatment. The cells were cultured for 2 days to 80% confluence. The proliferated cell count was determined by XTT measurement in the same manner as described above.

[1] = test system: HEK293 cells transiently transfected with pCMV14-hSLC5A8-3×FLAG (SMCT1); experiment: D-serine toxicity test in transient expression system, SMCT1; conditions: SMCT1-expressing HEK293 cells; 2 days; XTT
Procedure: as §1

[2] = test system: HEK293 cells transiently transfected with pCMV14-hSLC5A12-3×FLAG (SMCT2); experiment: D-serine toxicity test in transient expression system, SMCT2; conditions: SMCT2-expressing HEK293 cells; 2 days; XTT
Procedure: as §1

[3] = test system: FlpIn293TR-hSLC5A12-3×FLAG (SMCT2)-stable cell line; experiment: Toxicity test (XTT) in SMCT2-stable cell line; conditions: FlpIn293TR-Mock or SMCT2-stable cell line; SMCT2 cells compared to Mock cells
Procedure: as §2

[4] = test system: FlpIn293TR-hSLC5A8-3×FLAG (SMCT1)-stable cell line; experiment: Toxicity test (XTT) in SMCT1-stable cell line; conditions: SMCT1 cells compared to Mock cells
Procedure: as §2

[5] = test system: HEK293 cells transiently transfected with a cDNA clone of a transporter candidate; experiment: Cytotoxicity test (XTT) for screening of D-serine transporter candidates
Procedure: as §1
A total of 19 D-serine transporter candidates were selected from the proteome results. A cytotoxicity test for screening of D-serine transporter was developed based on the idea that intracellular D-serine accumulated via D-serine transporter function induces cytotoxicity. HEK293 cells were transiently transfected with a cDNA clone and the cells were treated with 15 mM or 25 mM D-serine to observe the initial stage and stationary stage of the toxicity effect. […]

[6] = test system: Flp-In TREx 293 cell line; experiment: D-[3H]serine uptake in Flp-In TREx 293 cell line in the presence of inhibitors; conditions: 10 minutes
Procedure: (§3) The cell lines HEK293 and Flp-In TREx 293 were cultured at 37° C. in a 5% CO2 environment, using Dulbecco's Modified Eagle Medium (DMEM) containing 10% fetal bovine serum (FBS), 100 units/ml Penicillin G and 100 μg/ml streptomycin (P/S). The cells were seeded in a Poly-D-lysine coated 24-well plate at 6×10^4 cells/well. After culturing for 3 days in DMEM Medium containing 10% FBS and P/S, the cell were used for transport activity measurement. Before transport activity measurement, the cells were washed with transport activity measurement buffer (PBS+1 g/L D-glucose) prewarmed to 37° C. and incubated for 10 minutes at 37° C. in 500 μL of buffer. The transport activity measurement was initiated by addition of D-[^3H]serine-containing transport activity buffer at the indicated concentration. The reaction product produced after addition was incubated at 37° C. for the indicated time. The reaction was suspended by removing the D-[^3H]serine-containing transport activity buffer, and the product was washed 3 times with thoroughly cooled transport activity buffer. The cells were dissolved with 500 μL of 0.1 N NaOH and incubated for at least one hour. Protein concentration of the cell lysate was measured by BCA protein assay. The lysate was mixed with 1 mL of Emulsifier Safe (PerkinElmer, MA, USA) and the radioactivity of the lysate was measured with a β-scintillation counter (LSC-8000, Hitachi). In transport activity measurement for Na^+, HBSS (+Na^+: 125 mM NaCl, −Na^+: choline chloride, 4.8 mM KCl, 1.2 mM MgSO4, 1.2 mM KH2PO4, 1.3 mM CaCl2), 5.6 mM D-glucose and 25 mM HEPES was used instead of PBS. For the inhibition experiment, a non-radioactive labeled compound was included as the uptake substrate as shown in the drawing.

HEK293 cells = experiment: [3H]D-serine transport in HEK293 cells; conditions: endogenous ASCT2
Procedure: as §3

ASCT2 = target: T1, ASCT2 (Homo sapiens, UniProt Q15758); experiment: [3H]D-serine transport in HEK293 cells transfected with ASCT2
T1 construct: expressed in transfected cells; host or cells: HEK293 cells
T1 sequence (Q15758 1-541): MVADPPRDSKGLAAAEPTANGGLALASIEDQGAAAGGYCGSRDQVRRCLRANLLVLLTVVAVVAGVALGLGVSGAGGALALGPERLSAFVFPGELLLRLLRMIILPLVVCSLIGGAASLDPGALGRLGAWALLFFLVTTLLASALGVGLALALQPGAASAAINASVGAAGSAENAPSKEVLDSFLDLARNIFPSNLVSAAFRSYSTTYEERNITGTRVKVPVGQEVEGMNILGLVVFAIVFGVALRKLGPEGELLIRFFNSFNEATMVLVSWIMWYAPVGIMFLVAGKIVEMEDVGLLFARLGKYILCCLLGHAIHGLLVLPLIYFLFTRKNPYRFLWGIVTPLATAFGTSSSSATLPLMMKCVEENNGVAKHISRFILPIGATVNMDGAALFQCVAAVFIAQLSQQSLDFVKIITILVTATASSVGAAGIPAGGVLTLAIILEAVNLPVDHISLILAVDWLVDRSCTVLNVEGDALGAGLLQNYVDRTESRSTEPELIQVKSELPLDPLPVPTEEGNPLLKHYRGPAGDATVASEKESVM
Procedure: The cell lines HEK293 and Flp-In TREx 293 were cultured at 37° C. in a 5% CO2 environment, using Dulbecco's Modified Eagle Medium (DMEM) containing 10% fetal bovine serum (FBS), 100 units/ml Penicillin G and 100 μg/ml streptomycin (P/S). The cells were seeded in a Poly-D-lysine coated 24-well plate at 6×10^4 cells/well. After culturing for 3 days in DMEM Medium containing 10% FBS and P/S, the cell were used for transport activity measurement. Before transport activity measurement, the cells were washed with transport activity measurement buffer (PBS+1 g/L D-glucose) prewarmed to 37° C. and incubated for 10 minutes at 37° C. in 500 μL of buffer. The transport activity measurement was initiated by addition of D-[^3H]serine-containing transport activity buffer at the indicated concentration. The reaction product produced after addition was incubated at 37° C. for the indicated time. The reaction was suspended by removing the D-[^3H]serine-containing transport activity buffer, and the product was washed 3 times with thoroughly cooled transport activity buffer. […] Protein concentration of the cell lysate was measured by BCA protein assay. The lysate was mixed with 1 mL of Emulsifier Safe (PerkinElmer, MA, USA) and the radioactivity of the lysate was measured with a β-scintillation counter (LSC-8000, Hitachi). […]

[7] = test system: ASCT2-knockout HAP1 cells; experiment: D-serine transport in ASCT2-knockout HAP1 cells
Description: In order to establish positive candidates for D-serine transporter it was attempted to elucidate the transport function in a cell model. ASCT2 is expressed in several cell lines, constituting a strong background of D-serine accumulation and interfering with identification of novel D-serine transporters. HAP1 cells (Horizon Discovery), which are an essentially haploid cell line, can be advantageously used as a cell model for this purpose. Genetic modification is facilitated since almost all of the chromosomes are single copies, while their transcriptome analysis methods have been established and several gene knockout cell lines can be used. ASCT2-knockout HAP1 cells were therefore obtained and used as a model for D-serine screening.
The ASCT2-knockout HAP1 cells had weaker D-serine uptake compared to wild type cells (FIG. 17(A)). However, D-serine transport background was still observed in the ASCT2-knockout HAP1 cells. Proteome analysis of the HAP1 cells (Table 2) was used to detect expression of both SNAT1 and SNAT2. SNAT1 and SNAT2 belong to the “system A family” of sodium-dependent small amino acid transporters. We considered that SNAT may contribute to D-serine transport in HAP1 cells. In order to verify this hypothesis, the inhibiting effect of the system A inhibitor MeAIB on D-serine transport was examined.

[3H]D-serine transport (ASCT2) | Compound | D-serine toxicity with respect to cell proliferation (Flp-In TREx293 cells; ASCT2 knockdown cells (ASCT2-siRNA) compared with control cells, 2 days, XTT) | pEC50 (Flp-In TREx293 cells; Flp-In-T-REx-293, 48 h, 2 days treatment, XTT assay, read-out: EC50 for cell proliferation reduction) | cytotoxicity compared to the Mock cells [1] | cytotoxicity compared to the Mock cells [2] | cell proliferation effect by serine treatment [3] | cell proliferation effect by D-serine treatment [4] | D-serine toxicity effect compared with Mock cells ([5]; 15 mM D-serine, cells transfected with SMCT2, CAT1, TAT1 and SNAT2, 2 days) | D-serine toxicity effect compared with Mock cells ([5]; 25 mM D-serine, cells transfected with GLUT5, SMCT1, SMCT2, CAT1, THTR2 and SNAT2, 2 days) | cell proliferation (Flp-In TREx293 cells; Flp-In TREx 293 control cells, 2 days, XTT) | Uptake of D-[3H]serine [6] | [3H]D-serine transport (HEK293 cells) | D-serine transport [7]
 | N[C@H](CO)C(=O)O [D-serine] | alleviated | 1.73 | higher cytotoxicity | higher cytotoxicity | decrease in cell proliferation; also recorded: lowered proliferation more than in the Mock cells | lowered proliferation more than in the Mock cells | increased toxicity | significant toxicity |  |  |  | 
notably inhibited | N[C@@H](CO)C(=O)O [L-serine] |  |  |  |  | did not affect cell proliferation |  |  |  | no effect | inhibited | inhibited | 
 | CNC(C)(C)C(=O)O [MeAIB, α-Methylaminoisobutyric acid] |  |  |  |  |  |  |  |  |  | not inhibited | not inhibited | notably reduced
